What is called IC50 is the concentration that gives 50% inhibition. For orientation: IC90 means the concentration needed for an effect of 90%. Low readings indicate greater potency, high ones weaker potency.

Here are results for four compounds from article PMC8955938, “c-Myc Protein Level Affected by Unsymmetrical Bisacridines Influences Apoptosis and Senescence Induced in HCT116 Colorectal and H460 Lung Cancer Cells” (International Journal of Molecular Sciences, 2022).

What all share (type): cell-based, human
Assay [1] concerns H460 cells. Description: MTT cell growth inhibition assay, H460. The protocol: (§1) To assess cell viability, the MTT assay was used. HCT116, H460, CCD 841 CoN and MRC-5 cells (20,000/well and 50,000/well for cancer and normal cells, respectively) were seeded in 24-well plates, and the following UAs were added at concentrations up to 10 μM: C-2028, C-2041, C-2045 and C-2053. Stock solutions (10 mM) were prepared in sterile water, as well as dilutions, also in water. After 72 h, 3-(4, 5-dimethylthiazol-2-yl)-2,5-diphenyltetrazolium bromide (MTT; 800 μg/well) was added for 3 h, then the formazan crystals were dissolved in DMSO, and absorbance was read at 540 nm. Each point was conducted at least 4 times, and data are expressed relative to controls. The concentration of the drug required to inhibit cells growth by 50 (IC50), 80 (IC80) and 90% (IC90) compared to untreated control cells was determined from the curves plotting survival as a function of dose.

For a further assay, the system named is MRC-5 cells. Briefly: MTT cell growth inhibition assay, MRC-5. The conditions noted are these: for IC50: MRC-5 normal cells; for IC90: MRC5, MRC-5 normal cells. The method, then:
as §1

The test system of assay [2] is MYC gene expression in H460 cells. Description: RT-PCR MYC expression in H460. As to conditions: H460, IC90 doses; for relative mRNA level of MYC gene: with time of incubation up to 120 h. The protocol:
(§2) HCT116, H460, CCD 841 CoN and MRC-5 cells after treatment with UAs were collected, washed twice with ice-cold PBS and resuspended in […] of PBS. mRNA was isolated using High Pure RNA Isolation Kit according to the manufacturer’s instructions (Roche, Basel, Switzerland). Briefly, cells were lysed in lysis-binding buffer and transferred to a filter tube. Contaminating DNA was removed by 15 min incubation of the filter tube with DNase I solution. The filter tube was washed once with buffer I and twice with buffer II, and after centrifugation, total RNA was eluted using the elution buffer. RNA concentration was determined by NanoDrop One (Thermo Scientific); 1 µg of RNA was reverse transcribed using Transcriptor First Strand cDNA Synthesis Kit according to the manufacturer’s instructions (Roche) in 20 µL of reaction containing 1 µg of RNA, […] anchored-oligo(dT)18Primer, 8 mM MgCl2, 20 U of Protector RNase Inhibitor, deoxynucleotide mix (1 mM each) and 22 U of Transcriptor Reverse Transcriptase. The reverse transcription reaction was carried out for 30 min at 55 °C and stopped by heating to 85 °C for 5 min and placing on ice. The cDNA solution was stored at −20 °C until use. Real-time polymerase chain reaction (PCR) was performed on 2 µL of cDNA using 0.2 µM forward and reverse primers on LightCycler® 480 using LightCycler® 480 SYBR Green I Master according to manufacturer’s instructions (Roche). Primers were designed using BLAST website. Their efficiency was checked, and they were ordered from Genomed (Warsaw, Poland). The sequences of primers were as follows: MYC set 1 forward primer, […]; MYC set 1 reverse primer, […]; MYC set 2 forward primer, […]; MYC set 2 reverse primer, […]; KRAS forward primer, […]; KRAS reverse primer, […]; reference gene, GAPDH forward primer ACCCACTCCTCCACCTTTG; and GAPDH reverse primer, CTCTTGTGCTCTTGCTGGG. Cycling conditions were as follows: 1 cycle for 7 min at 95 °C (preincubation), 45 cycles of amplification: 10 s at 95 °C (denaturation), 20 s at 62 °C (annealing), 30 s at 72 °C (extension), 1 cycle for obtaining melting curve and 1 cycle for 10 s at 40 °C (cooling). The results were standardized to the reference gene GADPH. The relative expression level of MYC and KRAS was quantified using comparative method […]. The results were obtained from three independent experiments, each of which was analyzed at least twice.

Assay [3] deals with KRAS gene expression in H460 cells. Description: RT-PCR KRAS expression in H460. As to conditions: H460, IC90 doses, with time of incubation up to 120 h. The protocol:
as §2

Assay [4] relates to H460 cells. Briefly: Nuclear morphology (Hoechst 33342), H460. The conditions noted are these: H460, IC90 doses, 72 and 120 h similar level (time not specified). The method, then:
Nuclear morphology was examined under a fluorescence microscope (OLYMPUS BX60, […]) after staining with Hoechst 33342. Briefly, after drug treatment, HCT116, H460, CCD 841 CoN and MRC-5 cells were spun onto microscopic slides, fixed with methanol:acetic acid (3:1) for 15 min and stained with Hoechst 33342 (1 mg/mL) for 15 min. Cells were regarded as apoptotic based on the presence of condensed, fragmented chromatin. Enlarged cells containing multiple nuclei were considered as typical of mitotic catastrophe.

In assay [5] the test system is active caspase-3 in H460 cells. Description: Active caspase-3 flow cytometry, H460. As to conditions: H460, IC90 doses, 120 h. The protocol: Caspase-3 activity was determined using Alexa Fluor 647-conjugated anti-active caspase-3 antibody (BD Biosciences, San Diego, CA, USA) according to the manufacturer’s instructions. Briefly, HCT116 and H460 cells (1 × 10^6) were trypsinized, pelleted, washed twice with ice-cold PBS and fixed in Fixation Buffer for 20 min on ice. After fixation, cells were rinsed twice with Perm Wash Buffer, stained with Alexa Fluor 647-conjugated anti-active caspase-3 antibody for 30 min, rinsed with Perm Wash Buffer and analyzed by flow cytometry with FACS Accuri C6 (BD, San Jose, CA, USA).

For assay [6], the system named is cleaved PARP in HCT116 cells. Description: PARP cleavage flow cytometry, HCT116. The conditions noted are these: HCT116, IC90 doses, up to 120 h. The protocol:
PARP cleavage was determined using Alexa Fluor 647-conjugated anti-cleaved PARP antibody (BD Biosciences, San Diego, CA, USA) according to the manufacturer’s instructions. Briefly, HCT116 and H460 cells (1 × 10^6) were trypsinized, pelleted, washed twice with ice-cold PBS and fixed in Fixation Buffer for 20 min on ice. After fixation, cells were rinsed twice with Perm Wash Buffer, stained with Alexa Fluor 647-conjugated anti-cleaved PARP antibody for 30 min, rinsed with Perm Wash Buffer and analyzed by flow cytometry with FACS Accuri C6 (BD, San Jose, CA, USA).

Regarding `CN(CCCNc1c2ccccc2nc2cccc([N+](=O)[O-])c12)CCCNc1ccc2ncn3c4ccccc4c(=O)c1c23` [Compound C-2028], the 50% inhibitory concentration (IC50) with H460 cells [1] (H460, 72 h) was 0.016 ± 0.002 µM; in the assay with H460 cells [1] (Homo sapiens, NCI-H460, 72 h), not above 0.016 µM; in the assay on MRC-5 cells (Homo sapiens, MRC5, 72 h), approximately 0.02 µM. Further, the concentration for an effect of 90% (IC90) with H460 cells [1] (H460, 72 h) was 0.046 ± 0.004 µM; in the assay with H460 cells [1] (Homo sapiens, NCI-H460, 72 h), not above 0.05 µM; with MRC-5 cells (Homo sapiens, 72 h), 2.69 ± 0.64 µM. The “relative mRNA level of MYC gene” value in assay [2] was “stayed at the similar level”. In addition, in assay [3], the “relative amount of KRAS mRNA” value is listed as “remained almost at the same level”. Further, the “apoptotic cells (nuclear morphology)” value with H460 cells [4] turned out to be 24.8%. Also, the “cells with active caspase-3” value in assay [5] turned out to be 44.9%. In addition, the “cells with cleaved PARP” value in assay [6] is reported as “approximately 10%”.

With `O=c1c2ccccc2n2cnc3ccc(NCCCN4CCN(CCCNc5c6ccccc6nc6cccc([N+](=O)[O-])c56)CC4)c1c32` [Compound C-2041], the 50% inhibitory concentration (IC50) in the assay with H460 cells [1] (H460, 72 h) is 0.015 ± 0.002 µM; in the assay with H460 cells [1] (Homo sapiens, NCI-H460, 72 h), not above 0.016 µM; in the assay on MRC-5 cells (Homo sapiens, MRC5, 72 h), 0.023 ± 0.004 µM. For the same compound, the IC90 in the assay with H460 cells [1] (H460, 72 h) was 0.046 ± 0.005 µM; in the assay with H460 cells [1] (Homo sapiens, NCI-H460, 72 h), not above 0.05 µM; in the assay with MRC-5 cells (Homo sapiens, 72 h) it was 6.16 ± 2.06 µM. Also, the “relative mRNA level of MYC gene” value in assay [2] is 1.65. The “relative amount of KRAS mRNA” value in assay [3] is on record as “remained almost at the same level”. Further, in assay [5], the “cells with active caspase-3” value was found to be 35.5%. The “cells with cleaved PARP” value in assay [6] is listed as “approximately 10%”.

Take `Cc1ccc([N+](=O)[O-])c2c(NCCCN(C)CCCNc3ccc4ncn5c6ccc(O)cc6c(=O)c3c45)c3ccccc3nc12` [Compound C-2045]: the IC50 in the assay with H460 cells [1] (Homo sapiens, NCI-H460, 72 h) is 0.095 ± 0.038 µM; with MRC-5 cells (Homo sapiens, MRC5, 72 h) it was approximately 0.3 µM; in the assay on MRC-5 cells (72 h), 0.218 ± 0.037 µM. For the same compound, the IC90 in the assay with H460 cells [1] (Homo sapiens, NCI-H460, 72 h) was found to be 0.399 ± 0.052 µM; in the assay with MRC-5 cells (Homo sapiens, 72 h), 6.13 ± 2.35 µM. Moreover, in assay [2], the “drop of MYC mRNA level” value turned out to be 50%. Further, in assay [2], the “relative mRNA level of MYC gene” value was “around 0.55”. In addition, the “relative amount of KRAS mRNA” value in assay [3] is “around 1.5”. Further, in the assay with H460 cells [4], the “apoptotic cells (nuclear morphology)” value is recorded as 41.8%. In addition, the “cells with active caspase-3” value in assay [5] was determined as 51.6%. In addition, the “cells with cleaved PARP” value in assay [6] is reported as “approximately 10%”.

For `Cc1ccc([N+](=O)[O-])c2c(NCCCN(C)CCCNc3ccc4ncn5c6ccccc6c(=O)c3c45)c3ccccc3nc12` [Compound C-2053], in the assay with H460 cells [1] (Homo sapiens, NCI-H460, 72 h), the half-inhibitory concentration (IC50) worked out at 0.025 ± 0.006 µM and the IC90 came to 0.184 ± 0.022 µM. This compound registered a half-inhibitory concentration (IC50) with MRC-5 cells (Homo sapiens, MRC5, 72 h) of 0.12 ± 0.026 µM. This compound came in with an IC90 in the assay on MRC-5 cells (Homo sapiens, 72 h) of 3.8 ± 1.34 µM. Moreover, in assay [2], the “drop of MYC mRNA level” value was determined as 50% and the “relative mRNA level of MYC gene” value is “around 0.55”. Also, the “relative amount of KRAS mRNA” value in assay [3] was approximately 1.7. Also, in the assay with H460 cells [4], the “apoptotic cells (nuclear morphology)” value is recorded as 41.6%. Besides, the “cells with active caspase-3” value in assay [5] was 54.1%. The “cells with cleaved PARP” value in assay [6] was “least degraded”.
